Reference: PubChem BioAssay (NCI)
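96-well plates; 48 h exposure; 5 concentrations. Endpoints by linear interpolation between flanking doses. Not reached: highest tested concentration assigned. Abbreviation: GI50, concentration required for 50% inhibition of growth. TGI marks complete inhibition of growth.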

What was measured:
Experiment in all cases: DTP human tumour cell line panel, 48 h
[1] = tested on: A498 renal
[2] = tested on: A549 NSCLC
[3] = tested on: ACHN renal
[4] = tested on: BT-549 breast
[5] = tested on: COLO 205 colon
[6] = tested on: DU-145 prostate
[7] = tested on: HCC-2998 colon
[8] = tested on: HCT-116 colon
[9] = tested on: HOP-62 NSCLC
[10] = tested on: HOP-92 NSCLC
[11] = tested on: HS 578T breast
[12] = tested on: HT29 colon
[13] = tested on: KM12 colon
[14] = tested on: LOX IMVI melanoma
[15] = tested on: M14 melanoma
[16] = tested on: MALME-3M melanoma
[17] = tested on: MDA-MB-435
[18] = tested on: NCI-H226 lung
[19] = tested on: NCI-H23 lung
[20] = tested on: NCI-H460 lung
[21] = tested on: NCI-H522 lung
[22] = tested on: NCI/ADR-RES ovarian
[23] = tested on: OVCAR-3 ovarian
[24] = tested on: OVCAR-4 ovarian
[25] = tested on: OVCAR-5 ovarian
[26] = tested on: OVCAR-8 ovarian
[27] = tested on: SF-268 CNS
[28] = tested on: SF-539 CNS
[29] = tested on: SK-MEL-2 melanoma
[30] = tested on: SK-MEL-28 melanoma
[31] = tested on: SK-OV-3 ovarian
[32] = tested on: SNB-19 CNS
[33] = tested on: SNB-75 CNS
[34] = tested on: SW-620 colon
[35] = tested on: TK-10 renal
[36] = tested on: U251 CNS
[37] = tested on: UACC-62 melanoma
[38] = tested on: UO-31 renal
[39] = tested on: 786-0 renal
[40] = tested on: CAKI-1 renal
[41] = tested on: CCRF-CEM leukemia
[42] = tested on: EKVX NSCLC
[43] = tested on: HCT-15 colon
[44] = tested on: HL-60(TB) leukemia
[45] = tested on: IGROV1 ovarian
[46] = tested on: K-562 leukemia
[47] = tested on: MCF7 breast
[48] = tested on: MDA-MB-231 breast
[49] = tested on: MOLT-4 leukemia
[50] = tested on: PC-3 prostate
[51] = tested on: RPMI-8226 leukemia
[52] = tested on: RXF 393 renal
[53] = tested on: SF-295 CNS
[54] = tested on: SK-MEL-5 melanoma
[55] = tested on: SN12C renal
[56] = tested on: SR leukemia
[57] = tested on: T-47D breast
[58] = tested on: UACC-257 melanoma

Compound `Cc1cc(C)nc(SC2=C(Nc3ccc(C)c(Cl)c3)C(=O)N(Cc3ccccc3)C2=O)n1` has a GI50 [1] of over 160000 nM, a TGI [1] of over 160000 nM and a GI50 [2] of over 160000 nM. It also gave a TGI [2] of over 160000 nM, a GI50 [3] of over 160000 nM and a TGI [3] of over 160000 nM. The GI50 [4] was over 160000 nM, the TGI [4] was over 160000 nM and the GI50 [5] was over 160000 nM. The TGI [5] was over 160000 nM, the GI50 [6] was over 160000 nM and the TGI [6] was over 160000 nM. It also gave a GI50 [7] of over 160000 nM, a TGI [7] of over 160000 nM and a GI50 [8] of over 160000 nM. The TGI [8] was over 160000 nM, the GI50 [9] was 1350 nM and the TGI [9] was over 160000 nM. The GI50 [10] was over 160000 nM, the TGI [10] was over 160000 nM and the GI50 [11] was over 160000 nM. The TGI [11] was over 160000 nM, the GI50 [12] was over 160000 nM and the TGI [12] was over 160000 nM. The GI50 [13] was over 160000 nM, the TGI [13] was over 160000 nM and the GI50 [14] was over 160000 nM. For the same compound, the TGI [14] was over 160000 nM, the GI50 [15] was over 160000 nM and the TGI [15] was over 160000 nM. For the same compound, the GI50 [16] was over 160000 nM, the TGI [16] was over 160000 nM and the GI50 [17] was over 160000 nM. It also gave a TGI [17] of over 160000 nM, a GI50 [18] of over 160000 nM and a TGI [18] of over 160000 nM. The GI50 [19] was over 160000 nM, the TGI [19] was over 160000 nM and the GI50 [20] was over 160000 nM. The TGI [20] was over 160000 nM, the GI50 [21] was over 160000 nM and the TGI [21] was over 160000 nM. The GI50 [22] was over 160000 nM, the TGI [22] was over 160000 nM and the GI50 [23] was over 160000 nM. The TGI [23] was over 160000 nM, the GI50 [24] was over 160000 nM and the TGI [24] was over 160000 nM. For the same compound, the GI50 [25] was over 160000 nM, the TGI [25] was over 160000 nM and the GI50 [26] was over 160000 nM. It also gave a TGI [26] of over 160000 nM, a GI50 [27] of over 160000 nM and a TGI [27] of over 160000 nM. It also gave a GI50 [28] of over 160000 nM, a TGI [28] of over 160000 nM and a GI50 [29] of over 160000 nM. The TGI [29] was over 160000 nM, the GI50 [30] was over 160000 nM and the TGI [30] was over 160000 nM. For the same compound, the GI50 [31] was over 160000 nM, the TGI [31] was over 160000 nM and the GI50 [32] was over 160000 nM. For the same compound, the TGI [32] was over 160000 nM, the GI50 [33] was over 160000 nM and the TGI [33] was over 160000 nM. It also gave a GI50 [34] of over 160000 nM, a TGI [34] of over 160000 nM and a GI50 [35] of over 160000 nM. The TGI [35] was over 160000 nM, the GI50 [36] was over 160000 nM and the TGI [36] was over 160000 nM. It also gave a GI50 [37] of over 160000 nM, a TGI [37] of over 160000 nM and a GI50 [38] of over 160000 nM. The TGI [38] was over 160000 nM.

`COc1ccc(C/C(C)=C(/c2ccc(OCCN3CCCCC3)cc2)c2ccc(OC(=O)NCc3ccccc3)cc2)cc1` gave a GI50 [39] of 316 nM, a TGI [39] of 674 nM and a GI50 [1] of 398 nM. It also gave a TGI [1] of 744 nM, a GI50 [2] of 413 nM and a TGI [2] of 821 nM. It also gave a GI50 [3] of 434 nM, a TGI [3] of 780 nM and a GI50 [4] of 379 nM. It also gave a TGI [4] of 763 nM, a GI50 [40] of 405 nM and a TGI [40] of 769 nM. It also gave a GI50 [41] of 523 nM, a TGI [41] of 1550 nM and a GI50 [5] of 437 nM. The TGI [5] was 900 nM, the GI50 [6] was 442 nM and the TGI [6] was 805 nM. The GI50 [42] was 370 nM, the TGI [42] was 773 nM and the GI50 [7] was 435 nM. For the same compound, the TGI [7] was 797 nM, the GI50 [8] was 330 nM and the TGI [8] was 698 nM. It also gave a GI50 [43] of 339 nM, a TGI [43] of 706 nM and a GI50 [44] of 391 nM. The TGI [44] was 895 nM, the GI50 [9] was 419 nM and the TGI [9] was 825 nM. It also gave a GI50 [10] of 258 nM, a TGI [10] of 575 nM and a GI50 [12] of 385 nM. The TGI [12] was 841 nM, the GI50 [45] was 424 nM and the TGI [45] was 859 nM. For the same compound, the GI50 [46] was 301 nM, the TGI [46] was 1230 nM and the GI50 [13] was 440 nM. The TGI [13] was 826 nM, the GI50 [14] was 421 nM and the TGI [14] was 779 nM. For the same compound, the GI50 [15] was 344 nM, the TGI [15] was 731 nM and the GI50 [16] was 395 nM. It also gave a TGI [16] of 776 nM, a GI50 [47] of 56.8 nM and a TGI [47] of 512 nM. The GI50 [48] was 440 nM, the TGI [48] was 810 nM and the GI50 [17] was 393 nM. For the same compound, the TGI [17] was 736 nM, the GI50 [49] was 404 nM and the TGI [49] was 1100 nM. For the same compound, the GI50 [18] was 441 nM, the TGI [18] was 868 nM and the GI50 [19] was 425 nM. It also gave a TGI [19] of 838 nM, a GI50 [20] of 412 nM and a TGI [20] of 775 nM. It also gave a GI50 [21] of 490 nM, a TGI [21] of 928 nM and a GI50 [22] of 443 nM. For the same compound, the TGI [22] was 893 nM, the GI50 [23] was 413 nM and the TGI [23] was 762 nM. It also gave a GI50 [24] of 393 nM, a TGI [24] of 764 nM and a GI50 [25] of 415 nM. It also gave a TGI [25] of 780 nM, a GI50 [26] of 472 nM and a TGI [26] of 937 nM. For the same compound, the GI50 [50] was 398 nM, the TGI [50] was 778 nM and the GI50 [51] was 399 nM. It also gave a TGI [51] of 963 nM, a GI50 [52] of 435 nM and a TGI [52] of 876 nM. It also gave a GI50 [27] of 413 nM, a TGI [27] of 787 nM and a GI50 [53] of 436 nM. The TGI [53] was 802 nM, the GI50 [28] was 401 nM and the TGI [28] was 766 nM. It also gave a GI50 [29] of 460 nM, a TGI [29] of 879 nM and a GI50 [30] of 440 nM. For the same compound, the TGI [30] was 818 nM, the GI50 [54] was 421 nM and the TGI [54] was 774 nM. It also gave a GI50 [31] of 436 nM, a TGI [31] of 838 nM and a GI50 [55] of 428 nM. The TGI [55] was 800 nM, the GI50 [32] was 459 nM and the TGI [32] was 852 nM. It also gave a GI50 [33] of 355 nM, a TGI [33] of 716 nM and a GI50 [56] of 353 nM. For the same compound, the TGI [56] was 1340 nM, the GI50 [34] was 419 nM and the TGI [34] was 808 nM. The GI50 [57] was 303 nM, the TGI [57] was 746 nM and the GI50 [35] was 405 nM. For the same compound, the TGI [35] was 781 nM, the GI50 [36] was 403 nM and the TGI [36] was 791 nM. It also gave a GI50 [58] of 472 nM, a TGI [58] of 917 nM and a GI50 [37] of 455 nM. For the same compound, the TGI [37] was 817 nM, the GI50 [38] was 340 nM and the TGI [38] was 669 nM.
